For one assay, the system named is 2LMP s.c. tumors. As to the kind of experiment: TRA-8 therapy alone or with chemotherapy or radiation, breast cancer xenografts. The class given is in vivo, Athymic nude mice. The procedure:
Athymic nude mice were injected s.c. with 3 x 10^7 2LMP cells. […] The growth of tumors was monitored over time. […] Tumor size and regression rates were determined.
Data from 6 independent experiments were analyzed by individual experiment. Treatment combinations were compared with respect to in vivo anti-tumor efficacy, i.e., inhibition of tumor growth, which was measured as three endpoints; extension of tumor doubling times, percentage of tumor regressions, and growth rates over time. The actual number of days at which the tumor doubled in surface area (product of two diameters) relative to baseline on day 7 after tumor cell injection was used in the doubling time analysis. The nonparametric Kruskal-Wallis test was used for median tumor doubling time comparisons between treatments. Fisher's exact test was used to compare the proportions of tumor regressions and relapse-free regressions across treatment groups. To determine if any combination therapy produced significant synergistic inhibition of tumor growth, i.e., more than additive, the growth curves from the serial area measurements were compared using a linear mixed model approach over the first 3 weeks after start of therapy (Lindsey, J.K. Models for Repeated Measurements, pp. 100-142, Oxford, 1993). To test for synergistic effects of the combination therapies, an interaction term was included in the model. If the interaction term was significant and the effect was inhibition of growth at a rate greater than additive then the interaction was considered synergistic.
A total of 166 animals, 10 treatment groups, and 6 independent experiments were included in the aggregate analysis. Treatment combinations were compared with respect to in vivo anti-tumor efficacy. The median tumor doubling times were analyzed using the Kruskal-Wallis test and Fisher's exact test was used to compare the proportions of tumor regressions and relapse-free regressions across treatment groups.

In the next assay the test system is 2LMP xenografts. Nature of the assay: Analysis of apoptosis in xenografts, TUNEL. Particulars: day 14; TRA-8 100 µg i.p. days 7, 10; adriamycin 3 mg/kg or paclitaxel 10 mg/kg days 8, 11. The class given is in vivo, Athymic nude mice. The procedure:
One group of mice was untreated. The xenografts were dissected for the study of apoptosis on day 14 after tumor cell injection. The reason for the substantial reduction in treatment intensity compared to our standard treatment protocol was to allow adequate tumor tissue for analysis on day 14. Tunel assay for apoptosis in tumor xenografts was performed as follows. Five-micron paraffin sections of tissue were mounted on Superfrost/Plus slides and heated at 58°C for 1 h. Tissue sections were deparaffinized in three changes of xylene and rehydrated with one change of absolute ethanol, 95% ethanol, and 70% ethanol, each in 5-min increments. Then, the sections were placed in Tris-buffered saline (0.5M Tris base, 0.15 M NaCl, 0.0002% Triton X-100, pH 7.6). Apoptotic nuclei were detected using an Apop Tag Peroxidase kit (Intergen, Purchase, NY). Proteinase K (20 µg/ml in distilled deionized H2O) was added to the tissue specimens and incubated at room temperature for 15 min. Endogenous peroxidases were quenched with an aqueous solution of 3% hydrogen peroxide for 5 min. Sections were treated with an equilibration buffer for 3 0 min and then incubated with the TdT/enzyme (diluted in labeling reaction mix) for 1 h at 37°C using parafilm covers. During this incubation, the TdT enzyme binds the 3'-OH ends of DNA fragments and catalyzes the addition of digoxigenin-labeled and unlabeled deoxynucleotides. Negative controls were incubated with distilled H2O (diluted in labeling reaction mix) instead of the TdT enzyme. A stop buffer was added for 10 min at room temperature to terminate the labeling reaction. An anti-digoxigenin conjugate was added to each slide for 30 min. The chromagen 3,3' DAB was used to visualize the labeled 3' OH end of DNA fragments. The slides were then rinsed in deionized water and lightly counterstained with hematoxylin, dehydrated using graded alcohols and xylene and coverlsipped using Permount. Approximately 10 random fields were evaluated for percentage of Tunel stained and percentage of intensely stained apoptotic bodies throughout the tissue.

Another assay has as its system CLL B cells. As to the kind of experiment: Cytotoxicity to chronic lympholytic leukemia B cells in vitro. The class given is cell-based, human. Particulars: five patients; compared to normal primary B cells.
A further assay concerns Jurkat cells. As to the kind of experiment: Cell viability / apoptosis induction in Jurkat cells. The class given is cell-based, human. Conditions: 50 ng/ml TRA-8 overnight. As to the method:
Cell viability is determined using (1) the ATPLite kit according to the manufacturer's instructions (Packard Instruments, Meriden, CT); (2) the MTT Cell proliferation/viability kit (Sigma); or (3) PI staining of dead cells and analyzed by flow cytometry. At end of culture, cells are stained with 10 µg/ml PI and PI negative cells are gated as viable cells. For analysis of condensed nuclei of hepatocytes, cells are stained with 10 ng/ml […] (Molecular Probes) and analyzed by flow cytometry.

In assay [1] the target is human DR5/hIgG1 fusion protein (residues 1-180 of the extracellular portion of DR5 fused to the constant region of human IgG1; immunogen, ~50 kDa) (human) (UniProt O14763). As to the kind of experiment: ELISA on DR5-Ig, one-site binding model of non-linear regression. A general note: ELISA stands for enzyme-linked immunosorbent assay.
Assay [2] concerns the target T1, human DR5, full length, on cells (human, UniProt O14763 56-440).
T1 construct: whole, on cells; Used for Cos-7 cells transfected with full-length human DR5 cDNA and for human cells, cell lines and tissues that carry DR5 of their own; also called cell surface DR5; TRAIL-R2
Nature of the assay: radioisotope-labelled TRA-8 on a breast cancer cell line, compared with soluble TRAIL.

The text below walks through data of patent EP1506285B1, “COMBINATIONS OF ANTI-DR5 ANTIBODIES AND ANTI-DR4 ANTIBODIES AND OTHER THERAPEUTIC AGENTS” (UAB RESEARCH FOUNDATION, priority 2001, dated 2003).

Residues, ends and D or L forms follow the SMILES beside them. *: point of attachment. Cbz = O=C(OCc1ccccc1)*; CH2F = FC*

Turning to `COc1cccc2c1C(=O)c1c(O)c3c(c(O)c1C2=O)C[C@@](O)(C(=O)CO)C[C@@H]3O[C@H]1C[C@H](N)[C@H](O)[C@H](C)O1` [Adriamycin, doxorubicin], the “complete regressions of tumor” value with 2LMP s.c. tumors (TRA-8/adriamycin experiment (Figure 25)) was “no complete regressions”. In addition, the “tumor growth compared to untreated controls” value with 2LMP s.c. tumors (TRA-8/adriamycin experiment (Figure 25), 200 µg TRA-8, adriamycin 6 mg/kg i.v.) was “did not differ from controls”. Further, in the assay with 2LMP xenografts, the “intense stained cells (TUNEL)” value is 6% and the “stained cells (TUNEL)” value was found to be 8%.

In the case of `Cn1cc(C2=C(c3cn(CCCN)c4ccccc34)C(=O)NC2=O)c2ccccc21` [BisVIII, Bisindolylmaleimide VIII], the “susceptibility of CLL B cells” value with CLL B cells is reported as “sensitive”.

`CC(=O)O[C@H]1C(=O)[C@@]2(C)[C@H]([C@H](OC(=O)c3ccccc3)[C@]3(O)C[C@H](OC(=O)[C@H](O)[C@@H](NC(=O)c4ccccc4)c4ccccc4)C(C)=C1C3(C)C)[C@]1(OC(C)=O)CO[C@@H]1C[C@@H]2O` [Paclitaxel]: the complete regressions entry in the assay with 2LMP s.c. tumors (TRA-8/paclitaxel experiment (Figure 26)) is on record as “none”. Besides, in the assay with 2LMP xenografts, the “intense stained cells (TUNEL)” value was 2% and the “stained cells (TUNEL)” value is 7%.

For `CC(NC(=O)C(NC(=O)OCc1ccccc1)C(C)C)C(=O)NC(CC(=O)O)C(=O)CF` (stereo not drawn) [Z-VAD] (Cbz-Val-Ala-Asp-CH2F; configuration not given here), the “inhibition of TRA-8-mediated cell death by caspase inhibitor” value in the assay on Jurkat cells is “completely inhibited”.

For “TRA-8 anti-human DR5 monoclonal antibody”, the Kd (commonly the equilibrium constant for the complex coming apart) in assay [1] is 3 nM.

Molecule “soluble recombinant human TRAIL (FLAG-tagged, Alexis) (from UniProt P50591 95-281) (ligand)” came in with a dissociation constant Kd in assay [1] of 59 nM.

B1: TRA-8 anti-human DR5 monoclonal antibody (antibody, mouse IgG1, kappa, V domains shown)
VH: EVMLVESGGGLVKPGGSLKLSCAASGFTFSSYVMSWVRQTPEKRLEWVATISSGGSYTYYPDSVKGRFTISRDNAKNTLYLQMSSLRSEDTAMYYCARRGDSMITTDYWGQGTTLTVSS
VL: DIVMTQSHKFMSTSVGDRVSITCKASQDVGTAVAWYQQKPGQSPKLLIYWASTRHTGVPDRFTGSGSGTDFTLTISNVQSEDLADYFCQQYSSYRTFGGGTKLEIKR
notes: Mouse IgG1, kappa; also called monoclonal anti-DR5 antibody (clone: TRA-8); mouse-mouse hybridoma TRA-8, ATCC PTA-1428
Turning to B1, the “fold higher binding activity than soluble TRAIL” value in assay [2] was at least 50 fold.
